Legend:
Assay type in all cases: in vivo
[1] = test system: windgrass (Apera spica-venti); test: Test B postemergence plant response
Outline: (§1)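 Plants grown in peat/vermiculite medium were sprayed postemergence at 2–18 cm height (1- to 4-leaf stage). After 13–15 days in the greenhouse, response was rated visually against untreated controls on a 0–100 scale (0 no effect, 100 complete control).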

[2] = test system: chickweed (Stellaria media); test: Test B postemergence plant response
Outline: as §1

[3] = test system: canarygrass (Phalaris minor); test: Test B postemergence plant response
Outline: as §1

corn (Zea mays) = test: Test B pre-/postemergence plant response
Outline: (§2)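 Visually scored on a 0 to 100 scale after 13 to 15 days in greenhouse versus controls. Treatments were preemergence on seeded loam/sand soil and postemergence on 1- to 4-leaf plants.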

wild oat (Avena fatua) = test: Test B pre-/postemergence plant response
Outline: as §2

[4] = test system: downy bromegrass (Bromus tectorum); test: Test B pre-/postemergence plant response
Outline: as §2

[5] = test system: blackgrass (Alopecurus myosuroides); test: Test B pre-/postemergence plant response
Outline: as §2

[6] = test system: giant foxtail (Setaria faberii); test: Test B pre-/postemergence plant response
Outline: as §2

[7] = test system: cocklebur (Xanthium strumarium); test: Test B pre-/postemergence plant response
Outline: as §2

[8] = test system: pigweed (Amaranthus retroflexus); test: Test B pre-/postemergence plant response
Outline: as §2

[9] = test system: Italian ryegrass (Lolium multiflorum); test: Test B pre-/postemergence plant response
Outline: as §2

[10] = test system: Surinam grass (Brachiaria decumbens); test: Test B pre-/postemergence plant response
Outline: as §2

[11] = test system: morningglory (Ipomoea coccinea); test: Test B pre-/postemergence plant response
Outline: as §2

[12] = 31 g ai/ha, postemergence, scale 0 to 100, 0 is no effect, 100 is complete control
[13] = 62 g ai/ha, postemergence, 0 is no effect, 100 is complete control, 13 to 15 days
[14] = Postemergence, 125 g ai/ha, visual rating after 13 to 15 days, scale 0 (no effect) to 100 (complete control)
[15] = Postemergence, 250 g ai/ha, scale 0 to 100 (0 no effect, 100 complete control)
[16] = Preemergence, 31 g ai/ha, scale 0 to 100 (0 no effect, 100 complete control)
[17] = Preemergence, 62 g ai/ha, scale 0 to 100 (0 no effect, 100 complete control)
[18] = Preemergence, 125 g ai/ha, scale 0 to 100, 0 no effect, 100 complete control
[19] = Preemergence, 250 g ai/ha, 0 to 100 scale
[20] = 16 g ai/ha, Postemergence, 0 to 100 scale
[21] = Postemergence, 31 g ai/ha, 0 to 100 scale (0 no effect, 100 complete control)
[22] = Postemergence, 62 g ai/ha, scale 0 to 100 (0 no effect, 100 complete control)
[23] = Postemergence, 125 g ai/ha, scale 0 to 100 (0 no effect, 100 complete control)
[24] = Postemergence, 250 g ai/ha, scale 0 to 100 (0 no effect, 100 complete control), 13 to 15 days

CCCn1c(-c2cccs2)ncc(C(=O)C2=C(O)CCCC2=O)c1=O [Compound 77]
Plant response rating, Windgrass [1, 12]: 10
Windgrass plant response rating (0 to 100 scale) [1, 13]: 10
Plant response rating, Windgrass [1, 14]: 20
Plant response rating, Windgrass [1, 15]: 25
Plant response rating, Chickweed [2, 12]: 80
Chickweed plant response rating (0 to 100 scale) [2, 13]: 85
Plant response rating, Chickweed [2, 14]: 95
Plant response rating, Chickweed [2, 15]: 98
Plant response rating, Canarygrass [3, 12]: 0
Canarygrass plant response rating (0 to 100 scale) [3, 13]: 0
Plant response rating, Canarygrass [3, 14]: 0
Plant response rating, Canarygrass [3, 15]: 0
Plant response rating, Corn (corn (Zea mays); [12]): 0
Corn plant response rating (0 to 100 scale) (corn (Zea mays); [13]): 5
Plant response rating, Corn (corn (Zea mays); [14]): 60
Plant response rating, Corn (corn (Zea mays); [15]): 75
Plant response rating, Corn (corn (Zea mays); [16]): 0
Plant response rating, Corn (corn (Zea mays); [17]): 0
Plant response rating, Corn (corn (Zea mays); [18]): 0
Corn plant response rating (corn (Zea mays); [19]): 0
Plant response rating, Oat, Wild (wild oat (Avena fatua); [12]): 0
Oat, Wild plant response rating (0 to 100 scale) (wild oat (Avena fatua); [13]): 5
Plant response rating, Oat, Wild (wild oat (Avena fatua); [14]): 5
Plant response rating, Oat, Wild (wild oat (Avena fatua); [15]): 5
Plant response rating, Oat, Wild (wild oat (Avena fatua); [16]): 0
Plant response rating, Oat, Wild (wild oat (Avena fatua); [17]): 0
Plant response rating, Oat, Wild (wild oat (Avena fatua); [18]): 0
Oat, Wild plant response rating (wild oat (Avena fatua); [19]): 0
Plant response rating, Bromegrass, Downy [4, 12]: 0
Bromegrass, Downy plant response rating (0 to 100 scale) [4, 13]: 5
Plant response rating, Bromegrass, Downy [4, 14]: 5
Plant response rating, Bromegrass, Downy [4, 15]: 5
Plant response rating, Bromegrass, Downy [4, 16]: 0
Plant response rating, Bromegrass, Downy [4, 17]: 0
Plant response rating, Bromegrass, Downy [4, 18]: 0
Bromegrass, Downy plant response rating [4, 19]: 0
Plant response rating, Blackgrass [5, 12]: 0
Blackgrass plant response rating (0 to 100 scale) [5, 13]: 0
Plant response rating, Blackgrass [5, 14]: 0
Plant response rating, Blackgrass [5, 15]: 5
Plant response rating, Blackgrass [5, 16]: 0
Plant response rating, Blackgrass [5, 17]: 0
Plant response rating, Blackgrass [5, 18]: 0
Blackgrass plant response rating [5, 19]: 0
Plant response rating, Foxtail, Giant [6, 12]: 65
Foxtail, Giant plant response rating (0 to 100 scale) [6, 13]: 75
Plant response rating, Foxtail, Giant [6, 14]: 75
Plant response rating, Foxtail, Giant [6, 15]: 80
Plant response rating, Foxtail, Giant [6, 16]: 0
Plant response rating, Foxtail, Giant [6, 17]: 0
Plant response rating, Foxtail, Giant [6, 18]: 5
Foxtail, Giant plant response rating [6, 19]: 45
Plant response rating, Cocklebur [7, 12]: 0
Cocklebur plant response rating (0 to 100 scale) [7, 13]: 0
Plant response rating, Cocklebur [7, 14]: 60
Plant response rating, Cocklebur [7, 15]: 85
Plant response rating, Cocklebur [7, 16]: 0
Plant response rating, Cocklebur [7, 17]: 0
Plant response rating, Cocklebur [7, 18]: 10
Cocklebur plant response rating [7, 19]: 65
Plant response rating, Pigweed [8, 12]: 98
Pigweed plant response rating (0 to 100 scale) [8, 13]: 98
Plant response rating, Pigweed [8, 14]: 100
Plant response rating, Pigweed [8, 15]: 100
Plant response rating, Pigweed [8, 16]: 100
Plant response rating, Pigweed [8, 17]: 100
Plant response rating, Pigweed [8, 18]: 100
Pigweed plant response rating [8, 19]: 100
Plant response rating, Ryegrass, Italian [9, 12]: 0
Ryegrass, Italian plant response rating (0 to 100 scale) [9, 13]: 5
Plant response rating, Ryegrass, Italian [9, 14]: 5
Plant response rating, Ryegrass, Italian [9, 15]: 10
Plant response rating, Ryegrass, Italian [9, 16]: 0
Plant response rating, Ryegrass, Italian [9, 17]: 0
Plant response rating, Ryegrass, Italian [9, 18]: 0
Ryegrass, Italian plant response rating [9, 19]: 0
Plant response rating, Surinam Grass [10, 12]: 65
Surinam Grass plant response rating (0 to 100 scale) [10, 13]: 65
Plant response rating, Surinam Grass [10, 14]: 75
Plant response rating, Surinam Grass [10, 15]: 80
Plant response rating, Surinam Grass [10, 16]: 0
Plant response rating, Surinam Grass [10, 17]: 20
Plant response rating, Surinam Grass [10, 18]: 75
Surinam Grass plant response rating [10, 19]: 100
Plant response rating, Morningglory [11, 12]: 75
Morningglory plant response rating (0 to 100 scale) [11, 13]: 75
Plant response rating, Morningglory [11, 14]: 80
Plant response rating, Morningglory [11, 15]: 90
Plant response rating, Morningglory [11, 16]: 0
Plant response rating, Morningglory [11, 17]: 65
Plant response rating, Morningglory [11, 18]: 75
Morningglory plant response rating [11, 19]: 90

CC1(C)CC(=O)C(C(=O)c2cnc(-c3ccccc3)n(-c3ccccc3)c2=O)=C(O)C1 [Compound 225]
Plant response rating, Windgrass [1, 20]: 5
Plant response rating, Windgrass [1, 21]: 50
Plant response rating, Windgrass [1, 22]: 55
Plant response rating, Chickweed [2, 20]: 15
Plant response rating, Chickweed [2, 21]: 25
Plant response rating, Chickweed [2, 22]: 40
Plant response rating, Chickweed [2, 23]: 95
Plant response rating, Canarygrass [3, 20]: 55
Plant response rating, Canarygrass [3, 21]: 60
Plant response rating, Canarygrass [3, 22]: 85
Plant response rating, Canarygrass [3, 23]: 85
Plant response rating, Corn (corn (Zea mays); [20]): 10
Plant response rating, Corn (corn (Zea mays); [21]): 40
Plant response rating, Corn (corn (Zea mays); [22]): 50
Plant response rating, Corn (corn (Zea mays); [23]): 70
Plant response rating, Oat, Wild (wild oat (Avena fatua); [20]): 25
Plant response rating, Oat, Wild (wild oat (Avena fatua); [21]): 45
Plant response rating, Oat, Wild (wild oat (Avena fatua); [22]): 50
Plant response rating, Bromegrass, Downy [4, 20]: 30
Plant response rating, Bromegrass, Downy [4, 21]: 35
Plant response rating, Bromegrass, Downy [4, 22]: 70
Plant response rating, Bromegrass, Downy [4, 23]: 85
Plant response rating, Blackgrass [5, 20]: 0
Plant response rating, Blackgrass [5, 21]: 0
Plant response rating, Blackgrass [5, 22]: 5
Plant response rating, Blackgrass [5, 23]: 15
Plant response rating, Foxtail, Giant [6, 20]: 75
Plant response rating, Foxtail, Giant [6, 21]: 75
Plant response rating, Foxtail, Giant [6, 22]: 80
Plant response rating, Foxtail, Giant [6, 23]: 85
Plant response rating, Cocklebur [7, 20]: 85
Plant response rating, Cocklebur [7, 21]: 98
Plant response rating, Cocklebur [7, 22]: 100
Plant response rating, Cocklebur [7, 23]: 100
Plant response rating, Pigweed [8, 20]: 80
Plant response rating, Pigweed [8, 21]: 90
Plant response rating, Pigweed [8, 22]: 95
Plant response rating, Ryegrass, Italian [9, 20]: 0
Plant response rating, Ryegrass, Italian [9, 21]: 0
Plant response rating, Ryegrass, Italian [9, 22]: 35
Plant response rating, Surinam Grass [10, 20]: 35
Plant response rating, Surinam Grass [10, 21]: 75
Plant response rating, Surinam Grass [10, 22]: 75
Plant response rating, Morningglory [11, 20]: 80
Plant response rating, Morningglory [11, 21]: 95
Plant response rating, Morningglory [11, 22]: 95
Plant response rating, Morningglory [11, 23]: 95

O=C1CCCC(O)=C1C(=O)c1cnc(-c2ccc(F)cc2)n(C2CCCCC2)c1=O [Compound 197]
Plant response rating, Windgrass [1, 21]: 10
Plant response rating, Windgrass [1, 22]: 50
Plant response rating, Windgrass [1, 24]: 98
Plant response rating, Chickweed [2, 21]: 100
Plant response rating, Chickweed [2, 22]: 100
Plant response rating, Chickweed [2, 23]: 100
Plant response rating, Chickweed [2, 24]: 100
Plant response rating, Canarygrass [3, 21]: 5
Plant response rating, Canarygrass [3, 22]: 30
Plant response rating, Canarygrass [3, 23]: 40
Plant response rating, Canarygrass [3, 24]: 60
Plant response rating, Corn (corn (Zea mays); [21]): 15
Plant response rating, Corn (corn (Zea mays); [22]): 35
Plant response rating, Corn (corn (Zea mays); [23]): 45
Plant response rating, Corn (corn (Zea mays); [24]): 65
Plant response rating, Oat, Wild (wild oat (Avena fatua); [21]): 40
Plant response rating, Oat, Wild (wild oat (Avena fatua); [22]): 40
Plant response rating, Oat, Wild (wild oat (Avena fatua); [24]): 85
Plant response rating, Bromegrass, Downy [4, 21]: 15
Plant response rating, Bromegrass, Downy [4, 22]: 15
Plant response rating, Bromegrass, Downy [4, 23]: 30
Plant response rating, Bromegrass, Downy [4, 24]: 30
Plant response rating, Blackgrass [5, 21]: 0
Plant response rating, Blackgrass [5, 22]: 10
Plant response rating, Blackgrass [5, 23]: 10
Plant response rating, Blackgrass [5, 24]: 45
Plant response rating, Foxtail, Giant [6, 21]: 85
Plant response rating, Foxtail, Giant [6, 22]: 95
Plant response rating, Foxtail, Giant [6, 23]: 98
Plant response rating, Foxtail, Giant [6, 24]: 100
Plant response rating, Cocklebur [7, 21]: 80
Plant response rating, Cocklebur [7, 22]: 100
Plant response rating, Cocklebur [7, 23]: 100
Plant response rating, Cocklebur [7, 24]: 100
Plant response rating, Pigweed [8, 21]: 80
Plant response rating, Pigweed [8, 22]: 90
Plant response rating, Pigweed [8, 24]: 100
Plant response rating, Ryegrass, Italian [9, 21]: 0
Plant response rating, Ryegrass, Italian [9, 22]: 0
Plant response rating, Ryegrass, Italian [9, 24]: 35
Plant response rating, Surinam Grass [10, 21]: 50
Plant response rating, Surinam Grass [10, 22]: 55
Plant response rating, Surinam Grass [10, 24]: 70
Plant response rating, Morningglory [11, 21]: 98
Plant response rating, Morningglory [11, 22]: 100
Plant response rating, Morningglory [11, 23]: 100
Plant response rating, Morningglory [11, 24]: 100

Reference: patent US8952024B2, “Herbicidal pyrimidone derivatives” (E I du Pont de Nemours and Company, priority 2009, dated 2015)
